Measured values reported in patent US7115639B2, “Pyrrolidine oxadiazole- and thiadiazole oxime derivatives being oxytocin receptor antagonists” (Applied Research Systems ARS Holding N.V., priority 2001, dated 2006).

Key:
hOT receptor = target: T1, hOT receptor (Homo sapiens, UniProt P30559); experiment: In vitro competition binding assay with scintillating proximity assay; conditions: [125I]-OVTA competition; membranes from HEK293EBNA cells expressing the hOT receptor; read-out: Binding affinity human OT-R IC50
T1 construct: expressed in transfected cells; host or cells: HEK293EBNA
T1 sequence (P30559 1-389): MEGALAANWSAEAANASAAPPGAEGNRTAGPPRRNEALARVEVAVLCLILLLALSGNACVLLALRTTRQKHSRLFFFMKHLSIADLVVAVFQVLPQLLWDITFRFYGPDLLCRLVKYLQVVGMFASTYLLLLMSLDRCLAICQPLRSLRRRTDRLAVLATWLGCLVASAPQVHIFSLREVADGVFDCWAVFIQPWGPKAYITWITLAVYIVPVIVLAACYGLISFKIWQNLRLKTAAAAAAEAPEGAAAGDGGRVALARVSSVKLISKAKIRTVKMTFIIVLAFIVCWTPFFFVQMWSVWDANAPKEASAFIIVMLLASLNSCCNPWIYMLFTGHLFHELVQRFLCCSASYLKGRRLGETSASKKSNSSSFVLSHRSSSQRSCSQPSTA
Description: a) In Vitro Competition Binding Assay with Scintillating Proximity Assay (Pharmaceutical Manufacturing International, 1992, p. 49–53 by Cook, N. D. et al)
This assays allows to determine the affinity of the test compounds for the OT receptor. Membranes from HEK293EBNA cells expressing the hOT receptor were resuspended in buffer containing 50 mM Tris-HCl, pH 7.4, 5 mM MgCl2 and 0.1% BSA (w/v). The membranes (2–4 μg) were mixed with 0.1 mg wheat-germ aglutinin (WGA) SPA bead (type A) and 0.2 nM of the radiolabel [^125I]-OVTA (OVTA being Ornithin Vasoactive and is an analogue of OT for competition binding experiments). Non-specific binding was determined in the presence of 1 μM Oxytocin. The total assay volume was 100 μl. The plates (Corning® NBS plate) were incubated at room temperature for 30 min and counted on a Mibrobeta plate counter. The tests compounds were used in concentrations of 30 μM, 10 μM, 1 μM, 300 nM, 100 nM, 10 nM, 1 nM, 100 pM, 10 pM. The competition binding data were analysed using the iterative, non-linear, curve-fitting program, “Prism”.
The binding affinities to the oxytocin receptor of the pyrrolidine derivatives claimed in the formula I were assessed using the above described in vitro biological assay. The values refer to the binding affinity (IC50; μM) of the example compounds according to formula I to the Oxytocin receptor.

hOT-R = target: T2, hOT-R (Homo sapiens, UniProt P30559); experiment: Functional assay No. 1: inhibition of Ca2+-mobilization by FLIPR; format: cell-based; conditions: HEK cells, OT 40 nM
T2 construct: expressed in transfected cells; host or cells: HEK (Human Embryonic Kidney) cells
T2 sequence (P30559 1-389): T1 sequence (P30559 1-389)
Text: b) Functional Assay No. 1: Inhibition of Ca^2+-mobilization by FLIPR (Fluorescent Imaging Plate Reader)
FLIPR is a machine for fluorescence imaging using a laser that is capable of illuminating a 96-well plate and a means of simultaneously reading each well thus enabling rapid measurements on a large number of samples.
This assay intends to show the inhibition of the OT/OT-R mediated calcium mobilisation—being necessary to cause uterine contractions—by using test compounds of formula (I).
Preparing the plates: FLIPR-plates were pre-coated with PLL (Poly-L-Lysine) 10 μg/ml+0.1% gelatine to attach the HEK (Human Embryonic Kidney) cells for 30 min up to 2 days at 37° C. The cells were plated out into 96-well plates (60000 cells/well).
Labelling with fluo-4: 50 μg fluo-4 (fluorescent marker) were dissolved in 20 μl pluronic acid (20% in DMSO). The dissolved fluo-4 was then diluted in 10 ml DMEM (Dubecco's Minimal Essential Medium-F12 medium without FCS (Fetal Calf Serum). The medium was removed from the plates, followed by one wash with DMEM-F12 medium. Now, 100 μl of the DMEM-F12 medium containing fluo-4 were added and the cells incubated for 1–1.5 h (CHO-cells), and 1.5–2 h (HEK-cells). The cells now contain the fluorescent marker.
Buffer: 145 mM NaCl, 5 mM KCl, 1 mM MgCl2, 10 mM Hepes, 10 mM Glucose, EGTA (Ethylene-bis oxyethylene nitrilo tetraacetic acid). Adjust to pH 7.4.
Performance of the assay: A minimum of 80 μl/well of antagonists (5×) in the above buffer (1×) were prepared (96-well plates). The antagonists were added to the well-plates at different concentrations (30 μM, 10 μM, 1 μM, 300 nM, 100 nM, 10 nM, 1 nM, 100 pM, 10 pM).
OT is added at a concentration of 40 nM.
The fluorescent market being sensitive to the amount of Ca^2+ mobilized within the cell may be quantified by the FLIPR machine.
The activities of the pyrrolidine derivatives according to formula I were assessed using the above described in vitro biological assay. The values refer to the capacity of the example compounds according to formula I to effectively antagonize oxytocin-induced intracellular Ca^2+-mobilization mediated by the Oxytocin receptor.

[1] = tested on: oxytocin-induced uterine contractions in the rat; experiment: In vivo model for inhibition of uterine contractions
Description: d) In Vivo Model for Inhibition of Uterine Contractions
The assay intends to show the biological effect of tested compounds in an in vivo model of preterm labor, premature birth.
Non-pregnant Charles River CD(SD) BR female rats (9–10 weeks old, 200–250 g) were treated at 18 and 24 hours before the experiment with 250 μg/kg, i.p. diethylstilbestrol (DES). For the assay, the animal was anaesthetised by urethane (1.75 g/kg, i.p.) and placed on an homeothermic operating table. The trachea was isolated and cannulated with a suitable polyethylene (PE) tubing. A midline incision at the hypogastrium level was made and one uterine horn exposed, its cephalic end cannulated with a PE240 tubing and, after filling the internal cavity with 0.2 ml of sterile physiological saline, connected to a “Gemini” amplifying/recording system via a P231D Gould Statham pressure transducer, in, order to measure said pressure. For the i.v. route of administration of the test compounds, one jugular vein was isolated and cannulated with a PE60 tubing connected to a butterfly needle to allow the administration by a dispensing syringe. In the case of intraduodenal administration of the test compounds, the duodenum was isolated and similarly cannulated through a small incision in its wall. One carotid artery was also isolated and cannulated with PE60 catheter and connected to a suitable syringe for blood sample collection (see below). After a stabilization period, the same dose of oxytocin was repeatedly injected intravenously at 30-min intervals. […] Further injections of the same dose of oxytocin were then made for a suitable time after treatment to assess inhibitory effects of the compounds under study. The contractile response of the uterus to oxytocin was quantified by measuring the intrauterine pressure and the number of contractions.
A total of six animals is forming one group which is treated with a given test compound at a given concentration (see above).
The effect of the test compounds were evaluated by comparing pre- and post-treatment pressure values. In addition, at 2, 30, 90 and 210 minutes after test compound administration, a 0.5-ml blood sample was withdrawn from the cannulated carotid artery of each experimental animal. Plasma was obtained by standard laboratory procedure and the resulting samples were stored at −20° C.
The activities of the pyrrolidine derivatives claimed in the formula I were assessed using the above described in vivo biological assay. The values refer to the capacity of the example compound according to formula I to effectively antagonize oxytocin-induced uterine contractions in the rat.

[2] = tested on: oxytocin-induced uterine contractions in the rat; experiment: as above; remark: listed apart in the source

Structure (SMILES) | IC50 (hOT receptor) | IC50 (hOT-R) | other results
CO/N=C1\C[C@@H](c2nc(C)no2)N(C(=O)c2ccc(-c3ccccc3C)cc2)C1 [(3E,5S)-1-[(2′-methyl[1,1′-biphenyl]-4-yl)carbonyl]-5-(3-methyl-1,2,4-oxadiazol-5-yl)-3-pyrrolidinone O-methyloxime] | 23 nM |  | 
CON=C1C[C@@H](c2nnco2)N(C(=O)c2ccc(-c3ccccc3)cc2)C1 [(3EZ,5S)-1-([1,1′-biphenyl]-4-ylcarbonyl)-5-(1,3,4-oxadiazol-2-yl)-3-pyrrolidinone O-methyloxime] | 211 nM | 220 nM | 
CON=C1C[C@@H](c2nc(C)no2)N(C(=O)c2ccc(-c3ccccc3)cc2)C1 [(3EZ,5S)-1-([1,1′-biphenyl]-4-ylcarbonyl)-5-(3-methyl-1,2,4-oxadiazol-5-yl)-3-pyrrolidinone O-methyloxime] | 88 nM | 4 nM | 
CON=C1C[C@@H](c2nc(CCO)no2)N(C(=O)c2ccc(-c3ccccc3)cc2)C1 [(3EZ,5S)-1-([1,1′-biphenyl]-4-ylcarbonyl)-5-[3-(2-hydroxyethyl)-1,2,4-oxadiazol-5-yl]-3-pyrrolidinone O-methyloxime] | 11 nM |  | 
CON=C1C[C@@H](c2nc(C)no2)N(C(=O)c2ccc(-c3ccccc3Cl)cc2)C1 [(3EZ,5S)-1-[(2′-chloro[1,1′-biphenyl]-4-yl)carbonyl]-5-(3-methyl-1,2,4-oxadiazol-5-yl)-3-pyrrolidinone O-methyloxime] |  | 1 nM | 
CON=C1C[C@@H](c2nc(C)no2)N(C(=O)c2ccc(-c3ccccc3C)cc2)C1 [(3EZ,5S)-1-[(2′-methyl[1,1′-biphenyl]-4-yl)carbonyl]-5-(3-methyl-1,2,4-oxadiazol-5-yl)-3-pyrrolidinone O-methyloxime] | 21 nM | 12 nM | 
CO/N=C1/C[C@@H](c2noc(CN(C)C)n2)N(C(=O)c2ccc(-c3ccccc3)cc2)C1 [(3Z,5S)-1-([1,1′-biphenyl]-4-ylcarbonyl)-5-{5-[(dimethylamino)methyl]-1,2,4-oxadiazol-3-yl}-3-pyrrolidinone O-methyloxime] |  |  | % Reduction of Uterine Contraction ([1]; oral, NP3S, 10 mg/kg): −49.5 ± 6.1%; % Reduction of Uterine Contraction ([1]; oral, NP3S, 30 mg/kg): −74.4 ± 4.2%; % Reduction of Uterine Contraction ([2]; oral, NP3S, 1 mg/kg): −11.1 ± 1.3%; % Reduction of Uterine Contraction ([2]; oral, NP3S, 3 mg/kg): −42.1 ± 2.9%
CO/N=C1\C[C@@H](c2nc(CCO)no2)N(C(=O)c2ccc(-c3ccccc3)cc2)C1 [Example 9 (3E), (3E,5S)-1-([1,1′-biphenyl]-4-ylcarbonyl)-5-[3-(2-hydroxyethyl)-1,2,4-oxadiazol-5-yl]-3-pyrrolidinone O-methyloxime] |  |  | melting point: 140.5 °C

More lines, in order of falling IC50 (hOT receptor), values ahead:

IC50 (hOT receptor) | IC50 (hOT-R) | Structure (SMILES) | other results
9 nM | 4 nM | CO/N=C1/C[C@@H](c2nc(C)no2)N(C(=O)c2ccc(-c3ccccc3C)cc2)C1 [(3Z,5S)-1-[(2′-methyl[1,1′-biphenyl]-4-yl)carbonyl]-5-(3-methyl-1,2,4-oxadiazol-5-yl)-3-pyrrolidinone O-methyloxime] | % Reduction of Uterine Contraction ([1]; Intravenous, NP3S 5 ml/kg infusion, 0.3 mg/kg): −21.5 ± 7.3%; % Reduction of Uterine Contraction ([1]; Intravenous, NP3S 5 ml/kg infusion, 1 mg/kg): −44.6 ± 7.1%; % Reduction of Uterine Contraction ([1]; Intravenous, NP3S 5 ml/kg infusion, 10 mg/kg): −67.2 ± 10.1%; % Reduction of Uterine Contraction ([2]; Intravenous, NP3S 5 ml/kg infusion, 3 mg/kg): −58.0 ±5.9%; % Reduction of Uterine Contraction ([2]; Intravenous, NP3S, 7.5 ml/kg infusion, 30 mg/kg): −80.3 ± 5.1%
7 nM |  | CON=C1C[C@@H](c2nc(CC(=O)N3CCCC3)no2)N(C(=O)c2ccc(-c3ccccc3)cc2)C1 [(3EZ,5S)-1-([1,1′-biphenyl]-4-ylcarbonyl)-5-{3-[2-oxo-2-(1-pyrrolidinyl)ethyl]-1,2,4-oxadiazol-5-yl}-3-pyrrolidinone O-methyloxime] | 
6 nM |  | CCC(O)c1noc([C@@H]2CC(=NOC)CN2C(=O)c2ccc(-c3ccccc3)cc2)n1 (mixture of isomers) [(3EZ,5S)-1-([1,1′-biphenyl]-4-ylcarbonyl)-5-{3-[(1RS)-1-hydroxypropyl]-1,2,4-oxadiazol-5-yl}-3-pyrrolidinone O-methyloxime] | 
3 nM |  | CON=C1C[C@@H](c2noc(CNC(C)=O)n2)N(C(=O)c2ccc(-c3ccccc3)cc2)C1 [N-({3-[(2S,4EZ)-1-([1,1′-biphenyl]-4-ylcarbonyl)-4-(methoxyimino)pyrrolidinyl]-1,2,4-oxadiazol-5-yl}methyl)acetamide] | 
2 nM |  | CON=C1C[C@@H](c2noc(C3CCN(C(C)=O)CC3)n2)N(C(=O)c2ccc(-c3ccccc3)cc2)C1 [(3EZ,5S)-5-[5-(1-acetyl-4-piperidinyl)-1,2,4-oxadiazol-3-yl]-1-([1,1′-biphenyl]-4-ylcarbonyl)-3-pyrrolidinone O-methyloxime] | 
